# Source: patent US20030073731A1, “Compositions and methods of the use thereof achiral analogues of CC-1065 and the duocarmycins” (priority 2000, published 2003)
# Assays:
# [1] = tested on: human colon adenocarcinoma cell line, LS 174T; experiment: cells; details: LS174T
# Method: Cells were seeded in 96-well microtiter plates at densities of 1000 cells/well. The optimal seeding density was determined to ensure exponential growth in control wells throughout the experimental period and to obtain a linear relationship between absorbance at 492 nm and cell number when analyzed by the sulforhodamine B (SRB) assay (43). 24 hours after seeding the cells were incubated for 1 hour or continuously for 3 days with the drugs (concentration range 0.01 to 500 pM). The cells were washed once and then incubated in drug free medium for 6 days. At the end of the incubation cell growth was determined by the SRB assay, which quantifies viable cells by measuring their total cellular protein content. […] Similar studies were conducted against the growth of PC3 (human prostate cancer cells) and MCF-7 (human breast cancer cells).
# [2] = tested on: panel of 60 human cancer cell lines; details: 48 hour exposure
# EKVX = experiment: cells; details: Homo sapiens
# HOP-62 = experiment: cells; details: Homo sapiens
# HOP-92 = experiment: cells; details: Homo sapiens
# SF-268 = experiment: cells; details: Homo sapiens
# UO-31 = experiment: cells; details: Homo sapiens
# MCF7 = experiment: cells; details: Homo sapiens
# MDA-MB-231/ATCC = experiment: cells; details: Homo sapiens
compound,measurement,setting,value
4-(2-Chloroethyl)-3-[5-(5-benzofuran-2-carboxamido)indole-2-carboxamido]phenol [Compound 1],GI50,K-562,2880 nM
same,TGI,K-562,9.59E-06 Molar
same,GI50,MOLT-4,1140 nM
same,GI50,SF-539,1920 nM
same,TGI,SF-539,4.16E-06 Molar
same,GI50,SK-MEL-2,1320 nM
same,TGI,SK-MEL-2,2.67E-06 Molar
same,GI50,MDA-N,2280 nM
same,TGI,MDA-N,5.47E-06 Molar
"COC(=O)c1[nH]c2c(O)cc(NC(=O)c3cc4cc(OC)c(OC)c(OC)c4[nH]3)c(CCCl)c2c1C(=O)OC [Compound 22, Dimethyl 4-(2-chloroethyl)-7-hydroxy-5-(5,6,7-trimethoxyindole-2-carboxamido)indole-2,3-dicarboxylate]",IC50,[1],4 nM
same,IC50,[1]; 1 h,1860 nM
same,cytotoxic activity in the NCI screen,[2],activity in the micromolar range
same,GI50,EKVX,164 nM
same,CC50,EKVX; read-out: LC50,3250 nM
same,GI50,HOP-62; HOP-62,91.4 nM
same,CC50,"HOP-62; HOP-62, read-out: LC50",8510 nM
same,GI50,HOP-92; HOP-92,179 nM
same,CC50,"HOP-92; HOP-92, read-out: LC50",> 50000 nM
same,GI50,SF-268; SF-268,13.8 nM
same,CC50,"SF-268; SF-268, read-out: LC50",1170 nM
same,GI50,UO-31; UO-31,98.8 nM
same,CC50,"UO-31; UO-31, read-out: LC50",> 50000 nM
same,GI50,MCF7; MCF7,22.4 nM
same,CC50,"MCF7; MCF7, read-out: LC50",47500 nM
same,GI50,MDA-MB-231/ATCC; MDA-MB-231,171 nM
same,CC50,"MDA-MB-231/ATCC; MDA-MB-231, read-out: LC50",> 50000 nM
